From US8748470B2, “Methods for treating ovarian cancer by inhibiting fatty acid binding proteins” (The University of Chicago, priority 2011, dated 2014)

Assays:
[1] = tested on: human ovarian cancer cells (HeyA8 or SKOV3ip1); assay: ex vivo ovarian cancer cell proliferation on sections of human omentum; type: cell-based; conditions: HeyA8 or SKOV3ip1, fluorescently labeled, 24 h
Excerpt: Representative images (left) and quantified fluorescence (right) were shown. Bars report means±s.e.m.

[2] = tested on: ID8 mouse ovarian cancer cells; assay: tumor burden in mice after bursal injection of ID8 cells and treatment with FABP4 inhibitor; type: in vivo; conditions: 20 mg/kg body weight daily by oral gavage from day 60 after ID8 injection, assessed after 30 d
Method: (a) Immune competent mice were injected with 1 million ID8 cells under the ovarian bursa. […] Number of metastases (a) and metastatic tumor weight (b) were assessed 30 d after the FABP4 inhibitor or control vehicle treatment.

SKOV3ip1 cells [3] = assay: lipid accumulation in cancer cells cocultured with primary human omental adipocytes (Bodipy 493/503, confocal microscopy); type: cell-based
Excerpt: (§1) FIGS. 11a-11g FABP4 has a key role in the interaction of cancer cells with adipocytes. (a) Representative immunohistochemical staining (bottom) for FABP4 in serial sections of primary ovarian tumor and corresponding omental metastatic tissues from a subject with stage IIIC advanced serous ovarian cancer (as classified by the International Federation of Gynecology and Obstetrics). Hematoxylin and eosin (H & E) staining is in the top images. The graph on the right is a summary of FABP4 protein expression scoring in 20 subjects, as assessed by immunohistochemistry. The scoring (0, 1 or 2, corresponding to negative, weak or strong) was performed in different tissue compartments: Benign ovarian stroma (A), primary ovarian cancer in the ovary (B), ovarian cancer metastatic to the omentum (C), interface of ovarian cancer cells into adipocytes (Adi) (D), and adipocytes (E). Error bars, ±s.e.m. […]
Lipid visualization. […] Adipocytes and extracellular fatty acids were washed away with HBSS containing 0.2% fatty-acid free BSA and total fluorescence per well in triplicate was quantified. […] Quantification of Bodipy neutral lipid dye was performed using Imaris software (Bitplane Inc., South Windor, Conn.) and normalized to number of nuclei in field (5-10 fields/condition). […]

SKOV3ip1 cells [4] = assay: invasion assay of SKOV3ip1 cells toward adipocytes; type: cell-based, human; conditions: inhibitor added to coculture; used at 10 μM; 24 h
Excerpt: as §1, with “±s.e.m. (b) Confocal microscopy images of lipid accumulation in SKOV3ip1 cells cocultured with or without primary human omental adipocytes and a FABP4 inhibitor (nuclear counterstaining). One of two experiments, conducted with different human subject samples, is shown. (c) Invasion assay of SKOV3ip1 cells toward adipocytes in the absence or presence of the FABP4 inhibitor HTS01037. Bars report mean fold change±s.e.m. One of two experiments, using two different human subject samples, is shown.” for “±s.e.m.”

HSL phosphorylation = assay: immunoblot for phosphorylated hormone sensitive lipase (p-HSL) in adipocyte/SKOV3ip1 coculture; type: cell-based, human; conditions: pretreated with 10 μM propranolol
Excerpt: FIGS. 9a-9d Cocultivation of ovarian cancer cells with adipocytes activates lipolysis in adipocytes and β-oxidation in cancer cells. (a) Quantitative RT-PCR for perilipin 1 in primary human omental adipocytes (Adi) cultured with and without SKOV3ip1 ovarian cancer (OvCa) cells. Bars report mean fold change relative to glyceraldehyde 3-phosphate dehydrogenase expression±s.e.m. (b) Immunoblot for phosphorylated hormone sensitive lipase (p-HSL) and total HSL in SKOV3ip1 cells cocultured with (+) and without (−) adipocytes and pretreated with 10 μM propranolol, a β-adrenergic receptor antagonist. (c) SKOV3ip1 cells were cocultured (1 h) with adipocytes, treated with isoproterenol (positive control) or 14-22 amide (negative control) and protein kinase A (PKA) activity was assessed. (d) β-oxidation in MONTY-1 OvCa cells cocultured with primary human adipocytes (L-carnitine, positive control; etomoxir, negative control). The graph reports the average oxidation rate at the indicated times±s.e.m.
Immunoblotting. In coculture experiments, primary human omental adipocytes were added to CMFDA-labeled SKOV3ip1 cells in SFM (1:5, PCV adipocytes:SFM) and incubated for 24 h. The adipocytes were removed and the SKOV3ip1 cells were subjected to FACS sorting to remove any remaining adipocytes in experiments involving FABP4 expression. […]

FABP4 mRNA = FABP4 mRNA expression in ID8 cells transfected with shRNA (quantitative RT-PCR); type: cell-based, mouse; conditions: ID8 cells transfected with FABP4 shRNA vs vector control
Excerpt: FIGS. 16a-16d Effects of FABP4 downregulation. (a) FABP4 mRNA expression in ID8 mouse ovarian cancer cells transfected with FABP4 small hairpin RNA (shRNA) (F4) or vector control shRNA (VC) in the presence (+) or absence (−) of mouse adipocytes. Bars report means±s.e.m. (b) Tumor burden in mice 10 weeks after intraperitoneal injection of ID8 mouse ovarian cancer cells transfected with 5 million shRNA (F4 or VC). (c) Metastatic tumor burden in mice 10 weeks after intraperitoneal injection of ID8 mouse ovarian cancer cells transfected with 5 million shRNA (F4 or VC). […] FABP4 mRNA expression was measured by quantitiative RT-PCR.
Quantitative real-time PCR. […] Real-time quantitative reverse transcription-PCR (RT-PCR) was performed as described (Sawada et al., 2008) using the following probes (Applied Biosystems, Carlsbad, Calif.): acyl-coenzyme A oxidase (ACOX1, Hs01074241_m1), CXCR1 (IL-8 receptor, Hs00174146 ml), carnitine palmitoyltransferase 1a (CPT1a, Hs00912681_m1), fatty acid binding protein 4 (FABP4; human, Hs00609791_m1; mouse, Mm00445878_m1), perilipin 1 (PLIN1, Hs00160173_m1) and glyceraldehyde-3-phosphate dehydrogenase (GAPDH; human, Hs00266705_g1; mouse, Mm99999915_g1). Relative mRNA gene expression was calculated using the 2^−ΔΔCt method as described (Shell et al., 2007). […]

[5] = tested on: ID8 mouse ovarian cancer cells; assay: tumor burden in mice after intraperitoneal injection of shRNA-transfected ID8 cells; type: in vivo; conditions: 10 weeks after intraperitoneal injection of shRNA-transfected ID8 cells, vs control group
Excerpt: FIGS. 16a-16d Effects of FABP4 downregulation. (a) FABP4 mRNA expression in ID8 mouse ovarian cancer cells transfected with FABP4 small hairpin RNA (shRNA) (F4) or vector control shRNA (VC) in the presence (+) or absence (−) of mouse adipocytes. Bars report means±s.e.m. (b) Tumor burden in mice 10 weeks after intraperitoneal injection of ID8 mouse ovarian cancer cells transfected with 5 million shRNA (F4 or VC). (c) Metastatic tumor burden in mice 10 weeks after intraperitoneal injection of ID8 mouse ovarian cancer cells transfected with 5 million shRNA (F4 or VC). (d) mRNA expression of FABP4 in tumors collected 10 weeks after intraperitonel injection of ID 8 mouse ovarian cancer cells transferred with FABP4 shRNA or vector control shRNA. FABP4 mRNA expression was measured by quantitiative RT-PCR.
Animal experiments. All animal experiments were approved by the Institutional Animal Care and Use Committee, University of Chicago. Xenograft animal experiments and in vivo homing were conducted in female immune-compromised athymic nude mice. […] Tumor volumes were measured as described (Zou et al., 2007) over 24 d and tumor weight determined at the end of the experiment. […] Metastatic tumor weight and number of metastatic nodules were determined at the end of each experiment and tumor tissue fixed in 10% formalin.

For CCc1c(-c2ccccc2)c(-c2ccccc2)nn1-c1ccccc1-c1cccc(OCC(=O)O)c1 [BMS309403, ((2′-(5-ethyl-3,4-diphenyl-1H-pyrazol-1-yl)(1,1′-biphenyl)-3-yl)oxy)-acetic acid], which “human ovarian cancer cell proliferation on sections of human omentum” value [1] is on record?
The value was “reduces human ovarian cancer cell proliferation”.

And the “tumor burden (number of metastases, metastatic tumor weight)” value [2]?
The value was “significantly reduced”.

What does the source list for COC(=O)c1sc(-c2cccs2)cc1NC(=O)C=CC(=O)O [HTS01037, 4-{[2-(methoxycarbonyl)-5-(2-thienyl)-3-thienyl]amino}-4-oxo-2-butenoic acid]?
lipid uptake in SKOV3ip1 cells cocultured with human omentum adipocytes (SKOV3ip1 cells [3]; 36 h coculture, Bodipy 493/503): prevents lipid uptake; lipid accumulation in the cancer cells (SKOV3ip1 cells [3]; inhibitor added to coculture of ovarian cancer cells and adipocytes, used at 10 μM): drastically reduced; adipocyte-mediated invasion (SKOV3ip1 cells [4]): drastically reduced

For CC(C)NCC(O)COc1cccc2ccccc12 (centres unmarked) [propranolol], which “ovarian cancer cell-induced HSL activation” value (HSL phosphorylation) is on record?
The value was “partially reversed”.

With “FABP4 shRNA: FABP4 small hairpin RNA (shRNA); comprises a nucleic acid sequence of SEQ ID NO: 1 (CCGGCTGGATGGAAATTTGCATCAACTCGAGTTGATGCAAATTTCCATCCAGTTTTTG)” as the compound, how does the “mRNA expression level of FABP4” value (FABP4 mRNA) read?
The value was “decreased”.

And the “tumor burden, intraperitoneal model” value [5]?
Its value is “substantially lowered”.
